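Where inhibition never reached the appropriate level, the endpoint shown equals the highest concentration tested. Otherwise, values were interpolated linearly from a five-concentration, 48-hour dose response in 96-well plates. GI50 marks 50% less growth.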 Calls of active or inactive are those of the source. Rule as the data show it: active = GI50 up to about 1.1 µM and inactive = higher.
Columns and labels:
Test in all cases: growth of human tumour cells (NCI), 48 h
MOLT-4 = system: MOLT-4
OVCAR-5 = system: OVCAR-5
K562 = system: K562
A549 = system: A549
HL-60 = system: HL-60
SNB-75 = system: SNB-75
MDA-MB-231 = system: MDA-MB-231
786-0 = system: 786-0
HCC 2998 = system: HCC 2998
SR = system: SR
CCRF-CEM = system: CCRF-CEM
SF-295 = system: SF-295
A498 = system: A498
TK-10 = system: TK-10
OVCAR-4 = system: OVCAR-4
HT-29 = system: HT-29
UACC-62 = system: UACC-62
SF-539 = system: SF-539
SK-MEL-5 = system: SK-MEL-5
SNB-19 = system: SNB-19

Measured: GI50

Nc1c([N+](=O)[O-])cc2c3c(cccc13)CC2
inactive: MOLT-4 23.6 µM | OVCAR-5 > 100 µM | K562 > 100 µM | A549 78.5 µM | HL-60 74.6 µM | SNB-75 > 100 µM | MDA-MB-231 38.9 µM | 786-0 57.4 µM | HCC 2998 > 100 µM | SR 25.4 µM | CCRF-CEM 90.6 µM | SF-295 91.6 µM | A498 33.7 µM | TK-10 42.8 µM | OVCAR-4 47.8 µM | HT-29 98.9 µM | UACC-62 85.1 µM | SF-539 31.5 µM | SK-MEL-5 53.2 µM | SNB-19 86.3 µM

NC(Cc1ccnnc1)C(=O)O (stereo not given)
inactive: MOLT-4 > 100 µM | OVCAR-5 > 100 µM | K562 > 100 µM | A549 > 100 µM | HL-60 > 100 µM | SNB-75 > 100 µM | MDA-MB-231 > 100 µM | 786-0 > 100 µM | HCC 2998 > 100 µM | SR > 100 µM | CCRF-CEM > 100 µM | SF-295 > 100 µM | A498 > 100 µM | TK-10 > 100 µM | OVCAR-4 > 100 µM | HT-29 > 100 µM | UACC-62 > 100 µM | SF-539 > 100 µM | SK-MEL-5 > 100 µM | SNB-19 > 100 µM

Cc1cc(C)c2c(c1)CC1(Cc3c(ccc(C)c3C)C1=O)C2=O (stereo not given)
inactive: MOLT-4 > 100 µM | OVCAR-5 > 100 µM | K562 > 100 µM | A549 > 100 µM | HL-60 > 100 µM | SNB-75 > 100 µM | MDA-MB-231 > 100 µM | 786-0 > 100 µM | HCC 2998 > 100 µM | SR > 100 µM | CCRF-CEM > 100 µM | SF-295 > 100 µM | A498 > 100 µM | TK-10 > 100 µM | OVCAR-4 > 100 µM | HT-29 > 100 µM | UACC-62 > 100 µM | SF-539 > 100 µM | SK-MEL-5 > 100 µM | SNB-19 > 100 µM

Nc1nc(Cl)c(C=O)c(NCC2(CO)CC(CCc3ccccc3)C2)n1 (stereo not given)
inactive: MOLT-4 2.62 µM | OVCAR-5 15.8 µM | K562 1.88 µM | A549 12.1 µM | HL-60 1.67 µM | SNB-75 18.7 µM | MDA-MB-231 7.46 µM | 786-0 21 µM | HCC 2998 1.88 µM | SR 1.87 µM | CCRF-CEM 7.85 µM | SF-295 13.3 µM | A498 11.7 µM | TK-10 15.2 µM | OVCAR-4 2 µM | HT-29 12.4 µM | UACC-62 5.38 µM | SF-539 12.4 µM | SK-MEL-5 8.05 µM | SNB-19 13.7 µM

CCOC(=O)C(NC(=O)c1ccccc1)(Nc1ccc(Cl)cc1C(F)(F)F)C(F)(F)F (stereo not given)
inactive: MOLT-4 2.55 µM | OVCAR-5 13.5 µM | K562 2.47 µM | A549 4.59 µM | HL-60 1.98 µM | SNB-75 2.29 µM | MDA-MB-231 6.31 µM | 786-0 8.95 µM | HCC 2998 > 28.3 µM | SR 2.28 µM | CCRF-CEM 1.7 µM | SF-295 4.03 µM | A498 6.05 µM | TK-10 8.26 µM | OVCAR-4 9.77 µM | HT-29 2.15 µM | UACC-62 5.3 µM | SF-539 5.71 µM | SK-MEL-5 4.91 µM | SNB-19 5.48 µM

COC(=O)/C1=C/C=C\C[C@@]2(C)CC(c3ccoc3)OC(=O)[C@@H]2CC[C@H]1C (stereo not given in full)
inactive: MOLT-4 > 25 µM | OVCAR-5 > 25 µM | K562 > 25 µM | A549 > 25 µM | HL-60 7.23 µM | SNB-75 > 25 µM | MDA-MB-231 > 25 µM | 786-0 > 25 µM | HCC 2998 > 25 µM | SR > 25 µM | CCRF-CEM > 25 µM | SF-295 > 25 µM | A498 > 25 µM | TK-10 > 25 µM | OVCAR-4 > 25 µM | HT-29 > 25 µM | UACC-62 > 25 µM | SF-539 > 25 µM | SK-MEL-5 > 25 µM | SNB-19 > 25 µM

COC(=O)[C@]12CC[C@H]3CC[C@H]([C@H]31)[C@H](c1ccccc1)N2
inactive: MOLT-4 12.9 µM | OVCAR-5 17.3 µM | K562 14.2 µM | A549 17.7 µM | HL-60 19.1 µM | SNB-75 26.9 µM | MDA-MB-231 16.3 µM | 786-0 15.7 µM | HCC 2998 13.5 µM | SR 12.1 µM | CCRF-CEM 21.4 µM | SF-295 16.3 µM | A498 17.6 µM | TK-10 17.2 µM | OVCAR-4 15.2 µM | HT-29 15.1 µM | UACC-62 14.4 µM | SF-539 16.5 µM | SK-MEL-5 14.7 µM | SNB-19 23 µM

From ChEMBL document CHEMBL1201862, “PubChem BioAssay data set” (2004)
